Experiment [1] concerns the target T1, Lysine-specific demethylase 5A (Homo sapiens, UniProt P29375). Nature of the experiment: Inhibition of full-length human KDM5A expressed in recombinant baculovirus expression system using […] peptide as substrate incubated for 30 to 45 mins by TR-FRET assay. Set-up: species or system Sf9. For orientation: In TR-FRET formats the signal depends on donor and acceptor labels being close together.

In experiment [2] the target is T2, Lysine-specific demethylase 4A (Homo sapiens, UniProt O75164).
T2 sequence (O75164 whole entry): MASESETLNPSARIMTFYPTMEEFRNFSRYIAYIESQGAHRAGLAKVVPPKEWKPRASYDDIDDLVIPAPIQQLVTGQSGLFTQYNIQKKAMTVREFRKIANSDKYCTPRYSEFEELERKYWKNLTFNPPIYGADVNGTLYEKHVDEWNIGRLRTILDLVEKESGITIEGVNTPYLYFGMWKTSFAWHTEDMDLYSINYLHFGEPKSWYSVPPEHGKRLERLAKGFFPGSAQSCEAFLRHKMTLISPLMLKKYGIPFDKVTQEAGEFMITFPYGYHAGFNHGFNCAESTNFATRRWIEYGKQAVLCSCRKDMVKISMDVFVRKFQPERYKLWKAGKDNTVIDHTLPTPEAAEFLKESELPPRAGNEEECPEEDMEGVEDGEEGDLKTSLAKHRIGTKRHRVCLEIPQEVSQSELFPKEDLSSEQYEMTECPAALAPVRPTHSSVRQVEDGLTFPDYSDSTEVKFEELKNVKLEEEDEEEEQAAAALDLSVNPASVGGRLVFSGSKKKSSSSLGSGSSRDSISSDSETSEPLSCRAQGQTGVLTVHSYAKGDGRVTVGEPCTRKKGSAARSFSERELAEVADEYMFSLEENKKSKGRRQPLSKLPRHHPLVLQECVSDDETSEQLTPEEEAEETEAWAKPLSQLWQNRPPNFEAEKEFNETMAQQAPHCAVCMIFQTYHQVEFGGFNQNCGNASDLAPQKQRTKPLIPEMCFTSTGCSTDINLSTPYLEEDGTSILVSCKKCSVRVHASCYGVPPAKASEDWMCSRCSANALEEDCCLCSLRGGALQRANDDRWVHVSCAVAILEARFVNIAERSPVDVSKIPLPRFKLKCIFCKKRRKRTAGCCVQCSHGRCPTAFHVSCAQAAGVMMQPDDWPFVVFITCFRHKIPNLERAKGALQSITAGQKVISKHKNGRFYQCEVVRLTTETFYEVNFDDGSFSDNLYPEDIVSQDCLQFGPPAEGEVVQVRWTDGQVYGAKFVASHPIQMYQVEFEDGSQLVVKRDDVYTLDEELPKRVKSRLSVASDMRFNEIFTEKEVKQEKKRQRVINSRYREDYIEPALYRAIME
Kind of experiment: Inhibition of KDM4A (unknown origin) incubated for 30 mins by fluorescence based assay.

Experiment [3] addresses T2, Lysine-specific demethylase 4A. Nature of the experiment: Inhibition of recombinant human KDM4A incubated for 30 mins by fluorescence based assay.
Experiment [4] addresses Lysine-specific demethylase 5C (Homo sapiens, UniProt P41229). Kind of experiment: Inhibition of N-terminal FLAG/His-tagged full-length human KDM5C (2 to 1560 residues) expressed in baculovirus infected Sf9 insect cells using peptide substrate incubated for 2 hrs by Alpha Screen assay. For orientation: Bead proximity is the source of the signal in Alpha formats.
Experiment [5] concerns the target T2, Lysine-specific demethylase 4A. Kind of experiment: Inhibition of KDM4A (1 to 359 residues) (unknown origin) using ARTKQTARK(me3)-STGGKAPRKQLA-GGK(biotin) peptide as substrate preincubated for 10 mins followed by substrate addition measured after 45 mins by LANCE Ultra assay.
In experiment [6] the target is T1, Lysine-specific demethylase 5A. Kind of experiment: Inhibition of full-length KDM5A ([…])(unknown origin) using ARTK(me3)-QTARKSTGGKAPRKQLA-GGK(biotin) as substrate preincubated for 10 mins followed by substrate addition measured after 45 mins by LANCE Ultra assay.
In experiment [7] the target is Lysine-specific demethylase 6B (Homo sapiens, UniProt O15054). Nature of the experiment: Inhibition of KDM6B (1043 to end residues) (unknown origin) using ATKAARK(me3)-SAPATGGVKKPHRYRPG-GK(biotin) as substrate preincubated for 10 mins followed by substrate addition measured after 45 mins by LANCE Ultra assay.
Experiment [8] concerns the target Lysine-specific demethylase 2A (Homo sapiens, UniProt Q9Y2K7). Nature of the experiment: Inhibition of KDM2A (unknown origin).
Experiment [9] concerns the target Lysine-specific demethylase 2B (Homo sapiens, UniProt Q8NHM5). Nature of the experiment: Inhibition of KDM2B (unknown origin).

Structures are written as SMILES.

As a reminder, the IC50 is the point on the concentration scale where inhibition reaches its midpoint.

T1 sequence (P29375 whole entry): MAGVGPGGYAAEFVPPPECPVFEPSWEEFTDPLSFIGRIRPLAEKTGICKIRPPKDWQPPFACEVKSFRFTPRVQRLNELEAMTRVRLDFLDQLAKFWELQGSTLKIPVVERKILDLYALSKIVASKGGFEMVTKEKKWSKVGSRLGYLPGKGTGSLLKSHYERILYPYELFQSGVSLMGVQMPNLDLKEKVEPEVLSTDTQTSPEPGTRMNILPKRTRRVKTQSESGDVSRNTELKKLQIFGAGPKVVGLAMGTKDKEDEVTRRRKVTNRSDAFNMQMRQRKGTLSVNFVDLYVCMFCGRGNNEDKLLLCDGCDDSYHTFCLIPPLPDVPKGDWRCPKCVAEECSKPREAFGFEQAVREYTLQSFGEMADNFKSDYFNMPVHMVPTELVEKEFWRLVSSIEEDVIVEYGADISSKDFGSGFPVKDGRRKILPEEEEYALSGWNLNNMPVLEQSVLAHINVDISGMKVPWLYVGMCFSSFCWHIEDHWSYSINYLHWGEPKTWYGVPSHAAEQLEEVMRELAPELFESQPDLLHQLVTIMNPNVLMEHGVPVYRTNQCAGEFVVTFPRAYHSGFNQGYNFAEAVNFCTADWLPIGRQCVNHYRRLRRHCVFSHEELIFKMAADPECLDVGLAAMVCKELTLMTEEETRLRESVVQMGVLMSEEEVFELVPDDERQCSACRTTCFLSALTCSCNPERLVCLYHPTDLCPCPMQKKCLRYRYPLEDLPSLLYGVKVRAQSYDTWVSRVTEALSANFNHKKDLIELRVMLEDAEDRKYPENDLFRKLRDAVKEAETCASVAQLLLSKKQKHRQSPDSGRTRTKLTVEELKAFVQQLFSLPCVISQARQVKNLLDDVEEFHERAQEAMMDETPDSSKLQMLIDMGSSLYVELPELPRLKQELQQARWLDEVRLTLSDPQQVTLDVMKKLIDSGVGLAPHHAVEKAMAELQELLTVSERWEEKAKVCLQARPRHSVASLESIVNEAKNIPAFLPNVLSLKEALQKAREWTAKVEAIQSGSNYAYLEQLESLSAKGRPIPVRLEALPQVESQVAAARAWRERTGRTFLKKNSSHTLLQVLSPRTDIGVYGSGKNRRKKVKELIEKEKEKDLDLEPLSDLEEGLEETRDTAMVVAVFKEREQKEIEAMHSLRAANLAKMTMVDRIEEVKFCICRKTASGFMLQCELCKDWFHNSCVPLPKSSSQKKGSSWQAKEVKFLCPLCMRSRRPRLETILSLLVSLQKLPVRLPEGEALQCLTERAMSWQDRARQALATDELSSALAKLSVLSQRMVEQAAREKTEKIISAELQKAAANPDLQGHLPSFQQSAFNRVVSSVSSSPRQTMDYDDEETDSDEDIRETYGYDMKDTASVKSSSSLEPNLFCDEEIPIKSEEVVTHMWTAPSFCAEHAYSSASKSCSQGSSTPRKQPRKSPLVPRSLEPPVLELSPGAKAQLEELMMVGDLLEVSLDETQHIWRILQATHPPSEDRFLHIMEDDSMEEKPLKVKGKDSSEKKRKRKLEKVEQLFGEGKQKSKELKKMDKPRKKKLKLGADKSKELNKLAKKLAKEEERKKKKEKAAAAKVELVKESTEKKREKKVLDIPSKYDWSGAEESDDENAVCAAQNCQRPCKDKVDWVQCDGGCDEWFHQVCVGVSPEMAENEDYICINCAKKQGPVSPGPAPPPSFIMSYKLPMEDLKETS
Chain of Lysine-specific demethylase 2B (Q8NHM5 whole entry): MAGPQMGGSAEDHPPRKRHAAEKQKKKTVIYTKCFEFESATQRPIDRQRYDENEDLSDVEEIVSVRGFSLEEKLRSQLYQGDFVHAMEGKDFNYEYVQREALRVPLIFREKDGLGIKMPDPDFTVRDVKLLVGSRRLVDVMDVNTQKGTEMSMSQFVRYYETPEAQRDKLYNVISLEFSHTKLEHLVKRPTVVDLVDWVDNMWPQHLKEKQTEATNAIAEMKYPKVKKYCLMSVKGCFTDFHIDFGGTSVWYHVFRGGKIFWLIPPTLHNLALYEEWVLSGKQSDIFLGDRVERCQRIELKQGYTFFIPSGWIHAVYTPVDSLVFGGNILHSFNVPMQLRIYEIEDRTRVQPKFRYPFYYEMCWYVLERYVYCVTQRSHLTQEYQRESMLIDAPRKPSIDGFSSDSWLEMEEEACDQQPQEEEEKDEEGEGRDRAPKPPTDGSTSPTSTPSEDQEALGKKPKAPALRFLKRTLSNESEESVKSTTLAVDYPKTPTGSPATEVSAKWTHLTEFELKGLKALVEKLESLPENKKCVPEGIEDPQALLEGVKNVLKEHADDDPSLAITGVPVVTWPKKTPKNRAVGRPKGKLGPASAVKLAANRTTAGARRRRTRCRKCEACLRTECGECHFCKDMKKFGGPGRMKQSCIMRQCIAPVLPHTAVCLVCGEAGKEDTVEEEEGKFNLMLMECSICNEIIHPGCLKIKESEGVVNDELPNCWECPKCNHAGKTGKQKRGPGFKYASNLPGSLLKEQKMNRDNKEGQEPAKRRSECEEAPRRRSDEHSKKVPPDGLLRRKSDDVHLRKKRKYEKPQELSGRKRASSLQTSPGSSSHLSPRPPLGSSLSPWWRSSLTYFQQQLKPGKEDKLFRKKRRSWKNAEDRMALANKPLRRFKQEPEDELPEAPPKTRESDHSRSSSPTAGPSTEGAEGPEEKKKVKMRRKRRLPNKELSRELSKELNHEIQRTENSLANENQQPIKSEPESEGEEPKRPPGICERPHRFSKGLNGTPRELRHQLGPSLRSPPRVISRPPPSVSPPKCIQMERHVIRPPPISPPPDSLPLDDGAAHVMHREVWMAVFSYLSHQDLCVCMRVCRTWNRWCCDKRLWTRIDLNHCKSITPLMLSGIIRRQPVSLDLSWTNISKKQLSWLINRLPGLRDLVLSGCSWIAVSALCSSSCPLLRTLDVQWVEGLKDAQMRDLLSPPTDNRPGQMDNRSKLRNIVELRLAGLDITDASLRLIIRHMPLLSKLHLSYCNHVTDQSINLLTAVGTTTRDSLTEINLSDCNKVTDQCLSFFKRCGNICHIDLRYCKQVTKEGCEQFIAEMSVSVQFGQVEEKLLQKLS
Chain of Lysine-specific demethylase 5C (P41229 whole entry, the tested form may be a part): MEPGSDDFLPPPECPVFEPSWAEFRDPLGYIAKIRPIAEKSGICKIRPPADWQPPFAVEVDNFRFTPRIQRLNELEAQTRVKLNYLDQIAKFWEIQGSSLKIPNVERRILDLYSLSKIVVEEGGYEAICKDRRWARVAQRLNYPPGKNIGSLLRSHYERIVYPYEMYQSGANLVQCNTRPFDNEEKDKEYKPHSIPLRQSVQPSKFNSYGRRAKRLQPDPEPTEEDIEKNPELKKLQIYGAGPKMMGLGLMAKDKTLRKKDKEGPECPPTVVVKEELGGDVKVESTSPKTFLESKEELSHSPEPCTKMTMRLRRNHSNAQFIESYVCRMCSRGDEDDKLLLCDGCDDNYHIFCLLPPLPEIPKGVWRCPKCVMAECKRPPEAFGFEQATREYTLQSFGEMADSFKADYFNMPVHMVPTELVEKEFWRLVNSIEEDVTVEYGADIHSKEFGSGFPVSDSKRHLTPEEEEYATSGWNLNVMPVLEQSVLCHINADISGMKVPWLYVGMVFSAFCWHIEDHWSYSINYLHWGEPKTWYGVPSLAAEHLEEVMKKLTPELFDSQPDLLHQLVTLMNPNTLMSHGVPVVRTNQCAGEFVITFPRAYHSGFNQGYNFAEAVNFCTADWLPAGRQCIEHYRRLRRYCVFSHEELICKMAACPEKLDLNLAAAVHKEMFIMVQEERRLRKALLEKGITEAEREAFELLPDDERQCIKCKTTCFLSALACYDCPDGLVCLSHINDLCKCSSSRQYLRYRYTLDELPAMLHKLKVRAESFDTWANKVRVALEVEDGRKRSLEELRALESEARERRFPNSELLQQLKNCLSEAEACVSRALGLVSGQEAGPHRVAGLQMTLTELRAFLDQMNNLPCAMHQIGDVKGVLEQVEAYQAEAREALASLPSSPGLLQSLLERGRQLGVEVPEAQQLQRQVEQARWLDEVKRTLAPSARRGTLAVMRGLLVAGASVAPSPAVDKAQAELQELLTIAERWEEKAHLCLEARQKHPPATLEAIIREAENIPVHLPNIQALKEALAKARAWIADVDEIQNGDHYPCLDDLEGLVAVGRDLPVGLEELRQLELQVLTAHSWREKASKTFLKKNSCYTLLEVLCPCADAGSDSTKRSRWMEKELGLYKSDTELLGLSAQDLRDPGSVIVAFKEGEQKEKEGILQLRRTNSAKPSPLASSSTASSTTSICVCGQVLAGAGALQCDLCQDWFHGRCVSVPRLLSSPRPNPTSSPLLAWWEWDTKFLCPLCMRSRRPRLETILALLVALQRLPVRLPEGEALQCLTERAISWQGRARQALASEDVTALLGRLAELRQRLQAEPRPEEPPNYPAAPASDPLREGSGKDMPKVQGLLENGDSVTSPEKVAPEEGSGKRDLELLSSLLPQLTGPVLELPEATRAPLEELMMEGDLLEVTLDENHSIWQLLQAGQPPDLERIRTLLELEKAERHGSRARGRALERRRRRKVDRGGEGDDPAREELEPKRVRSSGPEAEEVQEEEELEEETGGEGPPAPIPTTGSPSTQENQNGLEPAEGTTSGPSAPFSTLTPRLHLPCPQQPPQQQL

For the molecule `Cc1cc(O[C@H](C)C(=O)NCC(=O)NCC(=O)O)c2c3c(c(=O)oc2c1)CCC3`, the IC50 in experiment [1] is 0.0238 µM; in experiment [2], > 100 µM. For the molecule `O=C(O)c1cc(O)c(=O)c2c(O)c(O)cc(-c3ccccc3)c2c1`, in experiment [3], the IC50 was found to be 24.4 µM. In turn, `CCCCCCN(C)CCn1cc(-c2cc(C(=O)O)ccn2)nn1` gave an IC50 in experiment [4] of 0.0088 µM.

With `O=C(O)c1ccc(-n2nc(-c3ccccc3O)nc2-c2ccccc2O)cc1` [DEFERASIROX], the half-maximal inhibitory concentration (IC50) in experiment [5] is 4.76 µM; in experiment [6], 5 µM; in experiment [7], 3.95 µM.

As for `Cc1c(O)c(=O)ccn1C` [DEFERIPRONE], the IC50 in experiment [8] came out at 6.8 µM; in experiment [9], 8.1 µM.
